Here are results for 51 molecules from patent publication US7816350B2, “Substituted [1,2,3] triazolo[4,5-D]pyrimidines as cdk inhibitors” (Institute of Experimental Botany ASCR, priority 2002, dated 2010).

One assay has as its target T1, p34^cdc2/cyclin B (CDC2) (Homo sapiens, UniProt P06493).
T1 construct: made in house; host or cells: Sf9 insect cells (baculovirus co-infection)
The experiment in a line: CDK inhibition assay, p34cdc2/cyclin B kinase, histone H1 phosphorylation. The class given is biochemical. As to the method:
Cyclin-dependent kinases (p34^cdc2, p33^cdk2) and cyclins (cyclin B, E) are produced in Sf9 insect cells coinfected with appropriate baculoviral constructs. The cells are harvested 68-72 hrs post infection in lysis buffer for 30 min on ice and the soluble fraction is recovered by centrifugation at 14.000 g for 10 min. The protein extract is stored at −80° C.
Lysis buffer: 50 mM Tris pH 7.4, 150 mM NaCl, 5 mM EDTA, 20 mM NaF, 1% Tween, 1 mM DTT, 0.1 mM PMSF, leupeptine, aprotonine.
To carry out experiments on kinetics under linear conditions, the final point test system for kinase activity measurement is used. The kinase is added to reaction mixture in such a way as to obtain linear activity with respect to the concentration of enzyme and with respect to time.
The p34^cdc2 and p33^cdk2 kinase inhibition determination involves the use of 1 mg/ml histone H1 (Sigma, type III-S) in the presence of 15 μM [γ-^32P]ATP ([…]) (Amersham) in a final volume of 20 μl. Kinase activity is determined at 30° C. in the kinase buffer.
Tested compounds are usually dissolved to 100 mM solutions in DMSO, final concentration of DMSO in reaction mixture never exceeds 1%. The controls contain suitable dilutions of DMSO.
After 10 min, addition 3×SDS sample buffer stops the incubations. Phosphorylated proteins are separated electrophoretically using 12.5% SDS polyacrylamide gel. The measurement of kinase activity is done using digital image analysis.
The kinase activity is expressed as a percentage of maximum activity, the apparent inhibition constants are determined by graphic analysis (FIG. 1).
Kinase buffer: 50 mM Hepes pH 7.4, 10 mM MgCl2, 5 mM EGTA, 10 mM 2-glycerolphosphate, 1 mM NaF, 1 mM DTT

A further assay concerns the target IκB-α kinase. Kind of assay: IκB-α kinase inhibitory activity, in vitro kinase assay. The assay is classed as biochemical.

pIC50: −log10 of the molar value.

T1 sequence (P06493 whole entry, species assumed): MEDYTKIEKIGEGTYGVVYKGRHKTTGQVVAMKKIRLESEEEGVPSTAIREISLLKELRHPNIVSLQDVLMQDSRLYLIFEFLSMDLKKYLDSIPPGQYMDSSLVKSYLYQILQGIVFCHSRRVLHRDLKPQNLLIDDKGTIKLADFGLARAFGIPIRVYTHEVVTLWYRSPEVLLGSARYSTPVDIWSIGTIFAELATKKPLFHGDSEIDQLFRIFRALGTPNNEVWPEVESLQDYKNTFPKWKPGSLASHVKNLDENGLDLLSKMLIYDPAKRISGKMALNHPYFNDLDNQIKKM
T1 sequence (P14635 whole entry partner, species assumed): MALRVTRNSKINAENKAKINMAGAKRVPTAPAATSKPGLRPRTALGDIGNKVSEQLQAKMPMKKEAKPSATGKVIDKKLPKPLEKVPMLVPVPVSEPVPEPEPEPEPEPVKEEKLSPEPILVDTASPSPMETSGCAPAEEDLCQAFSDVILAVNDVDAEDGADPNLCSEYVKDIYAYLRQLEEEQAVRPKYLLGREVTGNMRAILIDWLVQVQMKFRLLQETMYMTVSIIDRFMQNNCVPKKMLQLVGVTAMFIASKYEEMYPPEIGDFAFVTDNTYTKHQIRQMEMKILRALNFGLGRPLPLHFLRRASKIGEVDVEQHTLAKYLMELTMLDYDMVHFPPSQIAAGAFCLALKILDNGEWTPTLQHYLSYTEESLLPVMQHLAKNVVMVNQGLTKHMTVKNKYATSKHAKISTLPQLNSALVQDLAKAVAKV

For `CC(=O)Oc1ccccc1CNc1nc(NCCO)nc2c1nnn2C`, the negative logarithm of the IC50 (pIC50) at p34^cdc2/cyclin B (CDC2) was 4.44; against IκB-α kinase, 4.40.

Turning to `CC(=O)c1ccccc1CNc1nc(NCCO)nc2c1nnn2C`, the values for the pIC50 on p34^cdc2/cyclin B (CDC2) and against IκB-α kinase were 4.15 and less than 4.00, respectively.

Regarding `Cn1nnc2c(NCc3c(N)cccc3Cl)nc(NCCO)nc21`, the results for the negative-log IC50 (pIC50) on p34^cdc2/cyclin B (CDC2) and against IκB-α kinase were 4.28 and 4.17, respectively.

Regarding `Cn1nnc2c(NCc3cccc(Cl)c3O)nc(NCCO)nc21`, the values for the negative logarithm of the IC50 (pIC50) on p34^cdc2/cyclin B (CDC2) and on IκB-α kinase were 4.15 and less than 4.00, respectively.

Regarding `COc1cccc(CNc2nc(NCCO)nc3c2nnn3C)c1O`, the pIC50 was 4.37 at p34^cdc2/cyclin B (CDC2) and less than 4.00 against IκB-α kinase.

Regarding `Cc1cccc(CNc2nc(NCCO)nc3c2nnn3C)c1O`, the values for the pIC50 against p34^cdc2/cyclin B (CDC2) and at IκB-α kinase were 4.07 and less than 4.00, respectively.

For `Cn1nnc2c(NCc3ccccc3O)nc(NCCO)nc21`, the negative-log IC50 (pIC50) at p34^cdc2/cyclin B (CDC2) is 4.64; against IκB-α kinase it was 4.35.

Take `Cn1nnc2c(NCc3ccc(Cl)c(N)c3N)nc(NCCO)nc21`: the pIC50 against p34^cdc2/cyclin B (CDC2) is 4.17; against IκB-α kinase, less than 4.00.

For the molecule `Cn1nnc2c(NCc3c(O)cc(Cl)cc3O)nc(NCCO)nc21`, the pIC50 against p34^cdc2/cyclin B (CDC2) was 4.66; against IκB-α kinase, less than 4.00.

For the molecule `CC(=O)Oc1cccc(CNc2nc(NCCO)nc3c2nnn3C)c1`, the pIC50 was 4.32 against p34^cdc2/cyclin B (CDC2) and 4.30 on IκB-α kinase.

Take `CC(=O)c1cccc(CNc2nc(NCCO)nc3c2nnn3C)c1`: the negative logarithm of the IC50 (pIC50) is 4.10 against p34^cdc2/cyclin B (CDC2) and less than 4.00 on IκB-α kinase.

With `Cn1nnc2c(Nc3ccc(Cl)c(N)c3)nc(NCCO)nc21`, the negative-log IC50 (pIC50) against p34^cdc2/cyclin B (CDC2) and against IκB-α kinase was less than 4.00 in each case.

In the case of `Cn1nnc2c(Nc3ccc(Cl)c(C(=O)O)c3)nc(NCCO)nc21`, the pIC50 against p34^cdc2/cyclin B (CDC2) is 4.37; against IκB-α kinase, less than 4.00.

In the case of `Cn1nnc2c(Nc3ccc(O)c(C(=O)O)c3)nc(NCCO)nc21`, the figures for the negative-log IC50 (pIC50) against p34^cdc2/cyclin B (CDC2) and at IκB-α kinase were 4.24 and less than 4.00, respectively.

Turning to `Cn1nnc2c(Nc3ccc(C(=O)O)c(Cl)c3)nc(NCCO)nc21`, the negative-log IC50 (pIC50) against p34^cdc2/cyclin B (CDC2) was 4.28; on IκB-α kinase, less than 4.00.

As for `Cn1nnc2c(Nc3cc(N)cc(Cl)c3)nc(NCCO)nc21`, the negative logarithm of the IC50 (pIC50) was 4.30 against p34^cdc2/cyclin B (CDC2) and less than 4.00 against IκB-α kinase.

Consider `Cn1nnc2c(NCc3cccc(O)c3)nc(NCCO)nc21`, for which the negative logarithm of the IC50 (pIC50) at p34^cdc2/cyclin B (CDC2) was 4.77; against IκB-α kinase, 4.40.

Consider `Cn1nnc2c(Nc3ccc(Br)cc3)nc(NCCO)nc21`, for which the pIC50 at p34^cdc2/cyclin B (CDC2) and against IκB-α kinase was less than 4.00 in each case.

As for `Cn1nnc2c(Nc3ccc(Cl)cc3)nc(NCCO)nc21`, the negative-log IC50 (pIC50) against p34^cdc2/cyclin B (CDC2) and against IκB-α kinase was less than 4.00 throughout.

`CC(C)n1nnc2c(NCc3ccccc3)nc(NCCO)nc21`: the pIC50 against p34^cdc2/cyclin B (CDC2) and at IκB-α kinase was less than 4.00 in each case.

As to `Cn1nnc2c(NCc3ccccc3)nc(NCCO)nc21`, the negative-log IC50 (pIC50) on p34^cdc2/cyclin B (CDC2) and against IκB-α kinase was less than 4.00 each time.

For the molecule `Cn1nnc2c(NCc3ccccc3)nc(NCCCN)nc21`, the negative logarithm of the IC50 (pIC50) is 4.05 on p34^cdc2/cyclin B (CDC2) and less than 4.00 on IκB-α kinase.

For the molecule `CC(C)n1nnc2c(NCc3ccccc3)nc(NC3CCC(N)CC3)nc21` (stereo not drawn), the negative logarithm of the IC50 (pIC50) was 5.43 at p34^cdc2/cyclin B (CDC2) and 4.32 against IκB-α kinase.

On to `CC(C)n1nnc2c(NCc3ccccc3)nc(N(CCO)CCO)nc21`, for which the pIC50 against p34^cdc2/cyclin B (CDC2) is 4.02; on IκB-α kinase, less than 4.00.

As for `CC(C)[C@H](CO)Nc1nc(NCc2ccc(Cl)c(N)c2N)c2nnn(C(C)C)c2n1`, the pIC50 against p34^cdc2/cyclin B (CDC2) is 4.47; on IκB-α kinase it was less than 4.00.

`CC(C)[C@H](CO)Nc1nc(NCc2ccccc2)c2nnn(C(C)C)c2n1`: the values for the negative-log IC50 (pIC50) on p34^cdc2/cyclin B (CDC2) and at IκB-α kinase were 4.82 and 4.30, respectively.

With `CC[C@H](CO)Nc1nc(NCc2ccccc2OC(C)=O)c2nnn(C(C)C)c2n1`, the results for the pIC50 against p34^cdc2/cyclin B (CDC2) and at IκB-α kinase were 4.72 and less than 4.00, respectively.

With `CC[C@H](CO)Nc1nc(NCc2ccccc2C(C)=O)c2nnn(C(C)C)c2n1`, the figures for the pIC50 against p34^cdc2/cyclin B (CDC2) and at IκB-α kinase were 4.43 and less than 4.00, respectively.

`CC[C@H](CO)Nc1nc(NCc2c(N)cccc2Cl)c2nnn(C(C)C)c2n1`: the pIC50 against p34^cdc2/cyclin B (CDC2) is 4.51; against IκB-α kinase, less than 4.00.

As to `CC[C@H](CO)Nc1nc(NCc2cccc(OC)c2O)c2nnn(C(C)C)c2n1`, the negative-log IC50 (pIC50) on p34^cdc2/cyclin B (CDC2) is 4.82; against IκB-α kinase, 4.12.

Consider `CC[C@H](CO)Nc1nc(NCc2cccc(C)c2O)c2nnn(C(C)C)c2n1`, for which the pIC50 is 4.47 against p34^cdc2/cyclin B (CDC2) and 4.10 against IκB-α kinase.

`CC[C@H](CO)Nc1nc(NCc2ccccc2O)c2nnn(C(C)C)c2n1`: the pIC50 was 4.85 against p34^cdc2/cyclin B (CDC2) and 4.10 against IκB-α kinase.

In the case of `CC[C@H](CO)Nc1nc(NCc2ccc(Cl)c(N)c2N)c2nnn(C(C)C)c2n1`, the results for the pIC50 at p34^cdc2/cyclin B (CDC2) and against IκB-α kinase were 4.35 and less than 4.00, respectively.

As to `CC[C@H](CO)Nc1nc(NCc2ccc(OC)c(O)c2O)c2nnn(C(C)C)c2n1`, the pIC50 was 4.85 against p34^cdc2/cyclin B (CDC2) and less than 4.00 on IκB-α kinase.

`CC[C@H](CO)Nc1nc(NCc2cc(O)c(Cl)cc2O)c2nnn(C(C)C)c2n1`: the figures for the negative-log IC50 (pIC50) against p34^cdc2/cyclin B (CDC2) and against IκB-α kinase were 4.80 and less than 4.00, respectively.

`CC[C@H](CO)Nc1nc(NCc2cc(O)c(OC)cc2O)c2[nH]nc(C(C)C)c2n1`: the pIC50 against p34^cdc2/cyclin B (CDC2) was 4.92; at IκB-α kinase, less than 4.00.

Consider `CC[C@H](CO)Nc1nc(NCc2c(O)cc(OC)cc2O)c2nnn(C(C)C)c2n1`, for which the negative-log IC50 (pIC50) was 4.77 against p34^cdc2/cyclin B (CDC2) and less than 4.00 against IκB-α kinase.

On to `CC[C@H](CO)Nc1nc(NCc2cccc(OC(C)=O)c2)c2nnn(C(C)C)c2n1`, for which the figures for the pIC50 on p34^cdc2/cyclin B (CDC2) and against IκB-α kinase were 4.62 and less than 4.00, respectively.

In the case of `CC[C@H](CO)Nc1nc(NCc2cccc(C(C)=O)c2)c2nnn(C(C)C)c2n1`, the negative-log IC50 (pIC50) against p34^cdc2/cyclin B (CDC2) is 4.24; against IκB-α kinase, less than 4.00.

With `CC[C@H](CO)Nc1nc(NCc2ccc(Cl)c(N)c2)c2nnn(C(C)C)c2n1`, the pIC50 was 4.54 against p34^cdc2/cyclin B (CDC2) and less than 4.00 against IκB-α kinase.

In the case of `CC[C@H](CO)Nc1nc(Nc2ccc(Cl)c(C(=O)O)c2)c2nnn(C(C)C)c2n1`, the values for the pIC50 at p34^cdc2/cyclin B (CDC2) and on IκB-α kinase were 4.40 and less than 4.00, respectively.

Take `CC[C@H](CO)Nc1nc(Nc2ccc(N)c(Cl)c2)c2nnn(C(C)C)c2n1`: the negative-log IC50 (pIC50) on p34^cdc2/cyclin B (CDC2) was 4.30; on IκB-α kinase, less than 4.00.

For the molecule `CC[C@H](CO)Nc1nc(Nc2ccc(C(=O)O)c(Cl)c2)c2nnn(C(C)C)c2n1`, the negative logarithm of the IC50 (pIC50) against p34^cdc2/cyclin B (CDC2) is 4.46; against IκB-α kinase, 4.15.

For `CC[C@H](CO)Nc1nc(Nc2cc(N)cc(Cl)c2)c2nnn(C(C)C)c2n1`, the figures for the pIC50 against p34^cdc2/cyclin B (CDC2) and at IκB-α kinase were 4.55 and 4.12, respectively.

Take `CC[C@H](CO)Nc1nc(NCc2ccc(O)c(O)c2)c2nnn(C(C)C)c2n1`: the pIC50 was 4.40 at p34^cdc2/cyclin B (CDC2) and less than 4.00 at IκB-α kinase.

For the molecule `CC[C@H](CO)Nc1nc(Nc2ccc(Br)cc2)c2nnn(C(C)C)c2n1`, the pIC50 at p34^cdc2/cyclin B (CDC2) is 4.59; against IκB-α kinase it was 4.05.

As to `CC[C@H](CO)Nc1nc(Nc2ccccc2)c2nnn(C(C)C)c2n1`, the negative-log IC50 (pIC50) on p34^cdc2/cyclin B (CDC2) is 4.54; against IκB-α kinase it was 4.15.

Regarding `CC(C)[C@H](CO)Nc1nc(NC(CO)c2ccccc2)c2nnn(C(C)C)c2n1` (mixture of isomers), the pIC50 against p34^cdc2/cyclin B (CDC2) is 4.30; on IκB-α kinase, less than 4.00.

On to `Cn1nnc2c(NC(CO)c3ccccc3)nc(NCCO)nc21` (racemic), for which the figures for the negative-log IC50 (pIC50) on p34^cdc2/cyclin B (CDC2) and at IκB-α kinase were 4.10 and less than 4.00, respectively.

Turning to `CC(C)n1nnc2c(NCc3ccccc3)nc(NCCCO)nc21` [2-(3-Hydroxypropylamino)-6-benzylamino-9-isopropyl-8-azapurine], the negative logarithm of the IC50 (pIC50) against p34^cdc2/cyclin B (CDC2) and against IκB-α kinase was less than 4.00 each time.

As for `Cn1nnc2c(Nc3ccccc3)nc(NCCO)nc21` [2-hydroxyethylamino / anilino / methyl], the figures for the pIC50 at p34^cdc2/cyclin B (CDC2) and against IκB-α kinase were 4.38 and less than 4.00, respectively.

What is called pIC50 is the negative decadic logarithm of the IC50, by convention in mol/L.
